Laboratory results from patent US12559481B2, “Quinoline derivatives” (ELANCO ANIMAL HEALTH GMBH, priority 2018, dated 2026).

Key:
D. immitis Slo-1 = D. immitis Slo-1 (Dirofilaria immitis, UniProt I0DFK5); assay: In vitro assay 2: D. immitis Slo-1, membrane potential in recombinant CHO cell line; format: cell-based
[1] = system: Adult Nippostrongylus brasiliensis; assay: In vitro assay 3: Nippostrongylus brasiliensis (NIPOBR), acetylcholine esterase readout; conditions: read-out: activity (reduction of AChE compared to negative control); for inhibition at 10 µg/mL: 10 μg/ml; for inhibition at 1 µg/mL: 1 μg/ml
Description: In Vitro Assay 3: Nippostrongylus Brasiliensis (NIPOBR)
Adult Nippostrongylus brasiliensis were washed with saline buffer containing 100 U/ml penicillin, 0.1 mg/ml streptomycin and 2.5 μg/ml amphotericin B. Test compounds were dissolved in DMSO and worms were incubated in medium in a final concentration of 10 μg/ml (10 ppm) respectively 1 μg/ml (1 ppm). An aliquot of the medium was used to determine the acetylcholine esterase activity in comparison to a negative control. The principle of measuring acetylcholine esterase as readout for anthelmintic activity was described in Rapson et al (1986) and Rapson et al (1987).

[2] = system: Dirofilaria immitis microfilariae; assay: In vitro assay 4: Dirofilaria immitis microfilariae (DIROIM L1) motility; conditions: 72 h, read-out: EC50 (reduction of motility)
[3] = system: Dirofilaria immitis third-stage larvae; assay: In vitro assay 5: Dirofilaria immitis (DIROIM L4) larval motility; conditions: 72 h, read-out: EC50 (reduction of motility)
[4] = log P by HPLC on reversed phase columns (LC-MS Method 0)
Description: Measurement of log P values was performed according to EEC directive 79/831 Annex V.A8 by HPLC (High Performance Liquid Chromatography) on reversed phase columns with the following methods, instrument(s): Agilent 1100 LC system, Agilent MSD system, HTS PAL; Waters IClass Acquity UPLC, SQD2 (MS), PDA (LV). • ^[a] log P value is determined by measurement of LC-UV, in an acidic range, with 0.1% formic acid in water and acetonitrile as eluent (linear gradient from 10% acetonitrile to 95% acetonitrile). • ^[b] log P value is determined by measurement of LC-UV, in a neutral range, with 0.001 molar ammonium acetate solution in water and acetonitrile as eluent (linear gradient from 10% acetonitrile to 95% acetonitrile).
Calibration was done with straight-chain alkan-2-ones (with 3 to 16 carbon atoms) with known log P values (measurement of log P values using retention times with linear interpolation between successive alkanones). Lambda-max-values were determined using UV-spectra from 200 nm to 400 nm and the peak values of the chromatographic signals.

C. elegans Slo-1a = C. elegans Slo-1a (Caenorhabditis elegans, UniProt Q95V25)
Description: In Vitro Assay 1: C. elegans Slo-1a—Action at a Recombinant C. elegans Cell Line
Generation of a Stable C. elegans CHO Cell Line
For transfection with plasmid DNA to express C. elegans Slo-1a (accession number AAL28102) CHO cells were passaged to 40% confluence before adding the transfection solution to the cell culture. The transfection solution included 300 μL OptiMEM (Life Technologies, Nr.: 31985), 2 μL (=6 μg) of plasmid DNA containing the C. elegans Slo 1a gene and 9 μL FugeneHD (Promega, Nr.: E2311), and was added to the cells prior to incubation for 48 hours at 37° C., 5% CO2. The transfection medium was exchanged for the selection medium which contains additional G418 (2 mg/ml, Invitrogen, Nr.: 10131) and the cells were seeded into 384 well plates (300 cells/well). After a few weeks, the remaining surviving cells were tested with a voltage sensitive dye (Membrane Potential Assay Kit, Molecular Devices Nr.: R8034) for K+ channel expression. Positive cell clones were purified by the limited dilution technique. For this the clone with the highest and most robust signal in the voltage sensitive dye assay was further subcloned (incubated) in 384 well plates (0.7 cells/well) in order to obtain clonal purity. This generated a final stable CHO cell line expressing the C. elegans Slo-1a.
Cells were cultured at 37° C., and 5% CO2 in MEMalpha with Glutamax I (Invitrogen, Nr.: 32571), supplemented with 10% (v/v) heat inactivated fetal bovine serum (Invitrogen, Nr.: 10500), G418 (1 mg/ml. Invitrogen. Nr.: 10131). Cells were detached using Accutase (Sigma. Nr.: A6964).
Membrane Potential Measurements
Laboratory compound testing was performed on 384-well microtiter plates (MTPs, Greiner, Nr.: 781092), 8000 cells/well were plated onto 384-well MTPs and cultured for 20 to 24 hours at 37° C., and 5% CO2. After removal of the cell culture medium, the cells were washed once with tyrode (150 mM NaCl, 0.3 mM KCl, 2 mM CaCl2. 1 mM MgCl2. 0.8 mM NaH2PO4, 5 mM Glucose, 28 mM Hepes, pH 7.4) and then loaded with the voltage sensitive dye of the Membrane Potential Assay Kit diluted in tyrode for 1 h at room temperature.
After starting the measurement of fluorescence using a FLIPR Tetra (Molecular Devices, Exc. 510-545 nm, Emm. 565-625 nm), test compounds were added followed by the addition of KCl tyrode (final assay concentration: 70 mM KCl, 2 mM CaCl2, 1 mM MgCl2, 0.8 mM NaH2PO4, 5 mM Glucose, 28 mM Hepes, pH 7.4, including the voltage sensitive dye). The measurement was completed after 7 minutes.
The data were evaluated by using the ActivityBase XLfit software (IDBS) for curve fitting and calculation of the half-maximal effective concentration (EC50) and are reported as negative decadic logarithm (pE50).

Haemonchus contortus = assay: In vitro assay 7: Haemonchus contortus (HAEMCO) larval mortality; conditions: 120 h, read-out: activity (larval mortality)
Description: In Vitro Assay 7: Haemonchus contortus (HAEMCO)
Solvent: Dimethyl Sulfoxide
Approximately 40 larvae of the red stomach worm (Haemonchus contortus) are transferred into a test tube containing compound solution.
After 5 days the percentage of larval mortality is recorded. 100% efficacy means all larvae are killed, 0% efficacy means no larvae are killed.

Cooperia curticei = assay: In vitro assay 6: Cooperia curticei (COOPCU) larval mortality; conditions: 120 h, read-out: activity (larval mortality)
Description: In Vitro Assay 6: Cooperia curticei (COOPCU)
Solvent: Dimethyl Sulfoxide
Approximately 40 nematode larvae (Cooperia curticei) are transferred into a test tube containing the compound solution.
After 5 days percentage of larval mortality is recorded. 100% efficacy means all larvae are killed; 0% efficacy means no larvae are killed.

Sequence of C. elegans Slo-1a (Q95V25 whole entry): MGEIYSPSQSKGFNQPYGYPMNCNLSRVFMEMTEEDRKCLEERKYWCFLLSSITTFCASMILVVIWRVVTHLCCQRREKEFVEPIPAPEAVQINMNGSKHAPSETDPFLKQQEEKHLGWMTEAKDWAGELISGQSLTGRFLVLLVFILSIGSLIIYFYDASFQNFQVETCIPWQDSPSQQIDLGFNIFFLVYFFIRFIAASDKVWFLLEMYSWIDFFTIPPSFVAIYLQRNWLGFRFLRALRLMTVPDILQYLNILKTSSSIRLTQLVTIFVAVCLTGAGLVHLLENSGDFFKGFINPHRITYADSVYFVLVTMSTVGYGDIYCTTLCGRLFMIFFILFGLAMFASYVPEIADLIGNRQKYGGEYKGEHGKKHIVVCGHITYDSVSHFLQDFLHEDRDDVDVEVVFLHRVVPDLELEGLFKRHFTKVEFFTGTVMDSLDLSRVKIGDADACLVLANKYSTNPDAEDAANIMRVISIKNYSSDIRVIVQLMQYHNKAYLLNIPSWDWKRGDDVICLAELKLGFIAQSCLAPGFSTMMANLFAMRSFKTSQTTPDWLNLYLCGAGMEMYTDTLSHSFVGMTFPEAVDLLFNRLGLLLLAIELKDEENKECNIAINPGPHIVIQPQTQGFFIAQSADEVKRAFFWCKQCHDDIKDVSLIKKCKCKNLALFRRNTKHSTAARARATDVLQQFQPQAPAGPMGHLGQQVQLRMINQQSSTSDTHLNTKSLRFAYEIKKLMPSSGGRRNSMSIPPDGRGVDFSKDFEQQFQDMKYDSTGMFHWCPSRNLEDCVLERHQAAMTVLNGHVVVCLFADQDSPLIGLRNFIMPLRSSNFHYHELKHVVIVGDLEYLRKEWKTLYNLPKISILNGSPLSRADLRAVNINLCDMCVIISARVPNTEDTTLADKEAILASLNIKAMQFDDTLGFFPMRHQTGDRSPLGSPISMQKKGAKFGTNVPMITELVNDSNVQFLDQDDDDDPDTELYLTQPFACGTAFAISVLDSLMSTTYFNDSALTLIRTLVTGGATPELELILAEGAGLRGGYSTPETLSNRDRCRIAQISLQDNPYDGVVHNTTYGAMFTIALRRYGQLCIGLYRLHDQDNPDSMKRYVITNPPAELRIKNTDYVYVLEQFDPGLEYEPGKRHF
Sequence of D. immitis Slo-1 (I0DFK5 1-1119): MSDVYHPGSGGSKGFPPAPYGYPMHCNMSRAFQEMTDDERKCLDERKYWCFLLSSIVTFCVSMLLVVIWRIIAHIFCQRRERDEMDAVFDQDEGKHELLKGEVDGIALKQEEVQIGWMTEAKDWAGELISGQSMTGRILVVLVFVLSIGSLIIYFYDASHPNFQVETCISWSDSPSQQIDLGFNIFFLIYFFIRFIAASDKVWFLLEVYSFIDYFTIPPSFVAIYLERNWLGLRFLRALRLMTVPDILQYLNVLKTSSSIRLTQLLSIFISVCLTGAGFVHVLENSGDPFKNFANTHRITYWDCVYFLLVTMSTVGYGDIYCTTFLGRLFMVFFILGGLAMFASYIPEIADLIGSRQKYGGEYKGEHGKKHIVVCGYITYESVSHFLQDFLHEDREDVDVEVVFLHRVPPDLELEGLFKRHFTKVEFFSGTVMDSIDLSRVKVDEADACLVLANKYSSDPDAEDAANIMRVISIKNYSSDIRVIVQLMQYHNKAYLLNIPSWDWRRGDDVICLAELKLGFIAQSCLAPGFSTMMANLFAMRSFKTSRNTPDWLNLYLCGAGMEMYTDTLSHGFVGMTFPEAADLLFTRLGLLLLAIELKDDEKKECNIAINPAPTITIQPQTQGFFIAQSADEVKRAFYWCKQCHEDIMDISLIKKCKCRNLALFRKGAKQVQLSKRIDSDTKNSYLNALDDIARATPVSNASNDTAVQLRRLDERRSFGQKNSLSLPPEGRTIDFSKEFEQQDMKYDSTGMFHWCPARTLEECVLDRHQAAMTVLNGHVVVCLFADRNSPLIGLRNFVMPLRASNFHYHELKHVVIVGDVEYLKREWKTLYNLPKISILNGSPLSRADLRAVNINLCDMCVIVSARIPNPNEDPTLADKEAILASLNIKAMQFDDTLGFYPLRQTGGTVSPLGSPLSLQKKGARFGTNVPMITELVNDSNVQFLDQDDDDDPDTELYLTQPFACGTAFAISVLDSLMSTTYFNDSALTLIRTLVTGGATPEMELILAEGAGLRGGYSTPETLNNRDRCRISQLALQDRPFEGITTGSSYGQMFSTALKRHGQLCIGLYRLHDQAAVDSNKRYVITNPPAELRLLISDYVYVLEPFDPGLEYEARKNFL

SMILES	EC50 (D. immitis Slo-1) [nM]	inhibition at 10 µg/mL [1] [%]	EC50 [2] [µg/mL]	EC50 [3] [µg/mL]	inhibition at 1 µg/mL [1] [%]	chromatographic logP [4]	EC50 (C. elegans Slo-1a) [nM]	mortality at 20 ppm (Haemonchus contortus) [%]	mortality at 0.8 ppm (Cooperia curticei) [%]	mortality at 4 ppm (Cooperia curticei) [%]	mortality at 20 ppm (Cooperia curticei) [%]	mortality at 4 ppm (Haemonchus contortus) [%]
O=C(NC1CCSc2ccc(F)cc21)c1cnc2c(-c3cc(F)cc(F)c3F)c(F)ccc2c1N1CC(F)C1 (stereo not drawn) [Example 8]	316 to 5010	> 80	< 0.1	< 0.1	–	–	–	–	–	–	–	–
O=C(N[C@H]1CCOc2ccccc21)c1cnc2c(-c3cc(F)cc(F)c3F)c(F)ccc2c1C1CCOCC1 [Example 3, N-[(4S)-3,4-Dihydro-2H-chromen-4-yl]-7-fluoro-4-(tetrahydro-2H-pyran-4-yl)-8-(2,3,5-trifluorophenyl)quinoline-3-carboxamide]	3.16 to 31.6	> 80	< 0.1	< 0.1	> 80	–	–	–	–	–	–	–
O=C(N[C@H]1CCOc2ccccc21)c1cnc2c(Br)c(F)ccc2c1N1CC(F)C1 [Intermediate 15A, 8-Bromo-N-[(4S)-3,4-dihydro-2H-chromen-4-yl]-7-fluoro-4-(3-fluoroazetidin-1-yl)quinoline-3-carboxamide]	–	–	–	–	–	1.29	–	–	–	–	–	–
O=C(N[C@H]1CCOc2ccccc21)c1cnc2c(-c3cc(F)cc(F)c3F)c(F)ccc2c1N1CC(F)C1 [Example 5, N-[(4S)-3,4-Dihydro-2H-chromen-4-yl]-7-fluoro-4-(3-fluoroazetidin-1-yl)-8-(2,3,5-trifluorophenyl)quinoline-3-carboxamide]	3.16 to 31.6	> 80	< 0.1	< 0.1	> 80	1.93	3.16 to 31.6	–	–	–	–	–
O=C(N[C@H]1CCOc2ccccc21)c1cnc2c(-c3cc(F)cc(F)c3F)cccc2c1N1CC(F)C1 [Example 15]	31.6 to 316	> 80	< 0.1	< 0.1	> 80	–	< 3.16	–	–	–	–	–
O=C(N[C@H]1CCOc2ccc(F)cc21)c1cnc2c(-c3cc(F)cc(F)c3F)c(F)ccc2c1N1CC(F)C1 [Example 10]	31.6 to 316	> 80	< 0.1	< 0.1	> 80	–	< 3.16	–	–	–	–	–
CCc1c(C(=O)N[C@H]2CCOc3ccccc32)cnc2c(-c3cc(F)cc(F)c3F)c(F)ccc12 [Example 4, N-[(4S)-3,4-Dihydro-2H-chromen-4-yl]-4-ethyl-7-fluoro-8-(2,3,5-trifluorophenyl)quinoline-3-carboxamide]	3.16 to 31.6	> 80	< 0.1	< 0.1	> 80	–	< 3.16	–	–	–	–	–
CC1(C)C[C@H](NC(=O)c2cnc3c(-c4cc(F)cc(F)c4F)c(F)ccc3c2N2CC(F)C2)c2ccccc2O1 [Example 13]	316 to 5010	> 80	< 0.1	< 0.1	–	–	3.16 to 31.6	–	–	–	–	–
N#Cc1ccc2c(c1)[C@@H](NC(=O)c1cnc3c(-c4cc(F)cc(F)c4F)c(F)ccc3c1N1CC(F)C1)CCO2 [Example 14]	316 to 5010	> 80	< 0.1	< 0.1	–	–	31.6 to 316	–	–	–	–	–
CCc1c(C(=O)N[C@H]2CCOc3ccccc32)cnc2c(-c3cc(F)cc(F)c3F)c(Cl)ccc12 [Example 21]	–	> 80	< 0.1	< 0.1	> 80	–	< 3.16	–	–	–	–	–
O=C(N[C@H]1CCc2ccccc21)c1cnc2c(-c3cc(F)cc(F)c3F)c(F)ccc2c1C1CCOCC1 [Example 16]	3.16 to 31.6	> 80	< 0.1	< 0.1	> 80	–	< 3.16	–	–	–	–	–
CCc1c(C(=O)N[C@H]2CCc3ccccc32)cnc2c(-c3cc(F)cc(F)c3F)c(Cl)ccc12 [Example 22]	3.16 to 31.6	> 80	< 0.1	< 0.1	> 80	–	–	–	–	–	–	–
O=C(N[C@H]1CCCc2ccccc21)c1cnc2c(-c3cc(F)cc(F)c3F)c(F)ccc2c1N1CC(F)C1 [Example 11]	–	> 80	< 0.1	< 0.1	> 80	–	< 3.16	–	–	–	–	–
O=C(N[C@H]1CCCc2ccccc21)c1cnc2c(-c3cc(F)cc(F)c3F)cccc2c1C1CCOCC1 [Example 20]	31.6 to 316	> 80	< 0.1	< 0.1	> 80	–	–	–	–	–	–	–
CC(C)Oc1ccc2c(C3CCOCC3)c(C(=O)N[C@H]3CCOc4ccccc43)cnc2c1-c1cc(F)cc(F)c1F [Example 18]	316 to 5010	> 80	< 0.1	< 0.1	> 80	–	–	–	–	–	–	–
O=C(N[C@H]1CCOc2ccccc21)c1cnc2c(Br)c(F)ccc2c1Cl [Intermediate 14A, 8-Bromo-4-chloro-N-[(4S)-3,4-dihydro-2H-chromen-4-yl]-7-fluoroquinoline-3-carboxamide]	–	–	–	–	–	3.18	–	–	–	–	–	–
O=C(N[C@H]1CCOc2ccccc21)c1cnc2c(-c3cc(F)cc(F)c3F)cccc2c1C1=CCOCC1 [Example 1, N-[(4S)-3,4-Dihydro-2H-chromen-4-yl]-4-(3,6-dihydro-2H-pyran-4-yl)-8-(2,3,5-trifluorophenyl)quinoline-3-carboxamide]	31.6 to 316	–	< 0.1	< 0.1	> 80	–	< 3.16	80	90	90	90	–
O=C(N[C@H]1CCc2ccccc21)c1cnc2c(-c3cc(F)cc(F)c3F)c(F)ccc2c1N1CC(F)C1 [Example 12]	31.6 to 316	> 80	< 0.1	< 0.1	> 80	–	< 3.16	–	–	–	–	–
O=C(N[C@H]1CCOc2ccccc21)c1cnc2c(-c3cc(F)cc(F)c3F)cccc2c1C1CCOCC1 [Example 2, N-[(4S)-3,4-Dihydro-2H-chromen-4-yl]-4-(tetrahydro-2H-pyran-4-yl)-8-(2,3,5-trifluorophenyl)quinoline-3-carboxamide]	3.16 to 31.6	> 80	< 0.1	< 0.1	> 80	–	< 3.16	90	100	100	–	90
O=C(N[C@H]1CCOc2ccccc21)c1cnc2c(-c3cc(F)cc(F)c3F)c(F)ccc2c1C1=CCOCC1 [Example 6, N-[(4S)-3,4-dihydro-2H-chromen-4-yl]-4-(3,6-dihydro-2H-pyran-4-yl)-7-fluoro-8-(2,3,5-trifluorophenyl)quinoline-3-carboxamide]	3.16 to 31.6	> 80	< 0.1	< 0.1	> 80	–	–	–	–	–	–	–
O=C(N[C@H]1CCc2ccccc21)c1cnc2c(-c3cc(F)cc(F)c3F)cccc2c1C1CCOCC1 [Example 19]	316 to 5010	> 80	< 0.1	< 0.1	> 80	–	< 3.16	–	–	–	–	–
Cc1ccc2c(c1)[C@@H](NC(=O)c1cnc3c(-c4cc(F)cc(F)c4F)c(F)ccc3c1N1CC(F)C1)CCO2 [Example 9]	316 to 5010	> 80	< 0.1	< 0.1	> 80	–	–	–	–	–	–	–
COc1ccc2c(C3CCOCC3)c(C(=O)N[C@H]3CCOc4ccccc43)cnc2c1-c1cc(F)cc(F)c1F [Example 7, N-[(4S)-3,4-dihydro-2H-chromen-4-yl]-7-methoxy-4-(tetrahydro-2H-pyran-4-yl)-8-(2,3,5-trifluorophenyl)quinoline-3-carboxamide]	3.16 to 31.6	> 80	< 0.1	< 0.1	> 80	–	< 3.16	–	–	–	–	–
O=C(NC1COc2ccccc21)c1cnc2c(-c3cc(F)cc(F)c3F)cccc2c1C1CCOCC1 (racemic) [Example 17]	316 to 5010	> 80	< 0.1	< 0.1	> 80	–	–	–	–	–	–	–
